Reference: patent US12667574B2, “Paraxanthine-based bioactive composition and method of use thereof” (PX ING, LLC, priority 2021, dated 2026)

How the values were obtained:
[1] = tested on: dopamine (dopa); assay: Dopamine concentration (Example 3); type: in vivo, rats; settings: for dopamine (dopa) concentration: oral 14 days
Procedure: (§1) Distilled water was provided ad libitum. […] Ltd (Bangalore, India).
(§2) 0.5% Carboxy Methyl Cellulose sodium was used as vehicle and the test item formulations were prepared daily. […] The last dose on day 14 was given 1 hour prior to testing.

[2] = tested on: male Swiss Albino Wistar rats; assay: Walter Morris Maze test (Example 3); type: in vivo; settings: for escape latency: oral 14 days
Procedure: Distilled water was provided ad libitum. […] Ltd (Bangalore, India). […] The last dose on day 14 was given 1 hour prior to testing. The Walter Morris Maze test consisted of a circular pool in a room with geometric shapes on the wall serving as spatial cues. The pool, which is 70 cm in diameter and painted with black color, filled with 13 cm depth of 25±1° C. water. A platform (6 cm diameter) was placed into one quadrant of the pool and submerged 1 cm below the water surface. For the training, all rats were trained to locate the submerged platform in constant location. The training day consisted of four trials. […] The rat was allowed to remain on the platform for 15 seconds before being dried off and later was transferred to a holding cage.

[3] = tested on: dopamine (dopa); assay: Dopamine concentration (second Example 4); type: in vivo, rats; settings: for dopamine (dopa) concentration: oral 14 days
Procedure: as §1
(§3) The following HED were used in this study: 50 mg paraxanthine, (ENFINITY™, Ingenious Ingredients, L.P Lewisville, TX, USA; rat dose: 5.141 mg/kg bw/day); 25 mg L-Theanine (rat dose: 2.570 mg/kg bw), and 50 mg paraxanthine plus 25 mg L-Theanine. 0.5% Carboxy Methyl Cellulose sodium was used as vehicle and the test item formulations were prepared daily. […] The last dose on day 14 was given 1 hour prior to testing.

[4] = tested on: male Swiss Albino mice; assay: Treadmill endurance test (Example 2)
Procedure: Thirty-six 8-week-old male Swiss Albino mice were housed in an animal room at a constant temperature (22±3° C.) and humidity (30%-70%) under a 12:12 h light-dark cycle with standard laboratory diet (Purina 5L79, Rat and Mouse 18% protein; PMI Nutrition International, Brentwood, MO, USA). Distilled water was provided ad libitum. All animal experiments were reviewed and approved by the Institutional Animal Ethical Committee (IAEC) of Radiant Research Services Pvt. Ltd (Bangalore, India). All research was conducted in accordance with the guidelines of the committee for the purpose of control and supervision of experiments on animals.
The dose administered to the mice was calculated using US Food and Drug Administration for human equivalence doses (HED), assuming a human weight of 60 kg. […] 0.5% Carboxy Methyl Cellulose sodium was used as vehicle and the test item formulations were prepared daily. Dosing was conducted via oral gavage using disposable polypropylene syringes with sterilized stainless steel gavage tubes. The food intake and water consumption were monitored daily, and BW was recorded weekly. The last dose on day 28 was given 1 hour prior to testing.
On 28th day of each respective treatment, all animals were subjected to a muscle endurance test. Muscle endurance was accomplished on a motorized treadmill at a low to moderate intensity of 5-50 cm/sec as maximal running speed, an incline of ten degrees and a shock intensity of 0.2 mA, with the belt speed being increased by 5 cm/sec every two minutes until it reaches 50 cm/sec. Animals were subjected to the treadmill test until exhaustion. Distance traveled (cm) was measured as a marker of exercise performance, energy, and endurance.

[5] = tested on: brain derived neuro factor, BDNF; assay: BDNF level, neuroplasticity (Example 3); type: in vivo, rats; settings: for BDNF: oral 14 days
Procedure: as §1, §2

[6] = tested on: male Swiss Albino mice; assay: Treadmill endurance test (first Example 4, L-Theanine); type: in vivo
Procedure: as §1
The following HED were used in this study: 50 mg paraxanthine, (ENFINITY™ Ingenious Ingredients, L.P Lewisville, TX, USA; mouse dose: 10.275 mg/kg bw/day); 25 mg L-Theanine (mouse dose: 5.137 mg/kg bw), and 50 mg paraxanthine plus 25 mg L-Theanine. 0.5% Carboxy Methyl Cellulose sodium was used as vehicle and the test item formulations were prepared daily.
During the treatment period, exercise training was completed using a motorized treadmill (Exer 3/6, Columbus Instruments international, OH, USA) at a moderate intensity of 20 cm/sec as maximal running speed, an incline of ten degrees and a shock intensity of 0.2 mA, for ten minutes. The speed of the treadmill was manually adjusted by increasing the belt speed by 5 cm/sec every two minutes throughout the total duration of ten minutes. All animals were adapted to this procedure daily 60 minutes after dosing for five days in a week during the treatment period. 1.3. Treadmill Endurance Test
Muscle endurance was accomplished on a motorized treadmill at a low to moderate intensity of 5-50 cm/sec as maximal running speed, an incline of ten degrees and a shock intensity of 0.2 mA, with the belt speed being increased by 5 cm/sec every two minutes until it reaches 50 cm/sec. Animals were subjected to the treadmill test until exhaustion.

[7] = tested on: male Swiss Albino Wistar rats; assay: Walter Morris Maze test (second Example 4, L-Theanine); type: in vivo; settings: for escape latency: oral 14 days
Procedure: as §1, §3
The Walter Morris Maze test consisted of a circular pool in a room with geometric shapes on the wall serving as spatial cues. The pool, which is 70 cm in diameter and painted with black color, filled with 13 cm depth of 25±1° C. water. A platform (6 cm diameter) was placed into one quadrant of the pool and submerged 1 cm below the water surface. For the training, all rats were trained to locate the submerged platform in a constant location. The training day consisted of four trials. During training, a rat started at one of four starting points and allowed to swim until it located the platform or until 60 seconds had elapsed. The rat was allowed to remain on the platform for 15 seconds before being dried off and later was transferred to a holding cage. […] The animals were continuously trained 4 times at 4 starting points continued daily for 4 days, the main trial was conducted on the 15th & 16th day and the latency of escaping onto the platform was recorded.

[8] = tested on: brain derived neuro factor, BDNF; assay: BDNF level, neuroplasticity (second Example 4); type: in vivo, rats; settings: for BDNF: oral 14 days
Procedure: as §1, §3

[9] = tested on: glutathione (GSH); assay: Glutathione level (Example 3); type: in vivo, rats; settings: for glutathione (GSH) level: oral 14 days
Procedure: as §1, §2

[10] = tested on: glutathione (GSH); assay: Glutathione level (second Example 4); type: in vivo, rats; settings: for glutathione (GSH) level: oral 14 days
Procedure: as §1, §3

[11] = tested on: acetylcholine (Ach); assay: Acetylcholine concentration (Example 3); type: in vivo, rats; settings: for acetylcholine (Ach) concentration: oral 14 days
Procedure: as §1, §2

[12] = tested on: acetylcholine (Ach); assay: Acetylcholine concentration (second Example 4); type: in vivo, rats; settings: for acetylcholine (Ach) concentration: oral 14 days
Procedure: as §1, §3

## Cn1c(=O)[nH]c2ncn(C)c2c1=O [paraxanthine, 1,7-Dimethyl-3H-purine-2,6-dione]
[1]; old rats
  dopamine (dopa) concentration: 516.85 ± 4.43 ng/L
  increase in dopa compared to alpha-GPC: 2.1%
  increase in dopa compared to placebo: 32.7%
  increase in dopa compared to theobromine: 2.8%
  increase in dopa compared to theophylline: 4.2%
[1]; young rats
  dopamine (dopa) concentration: 580.22 ± 5.33 ng/L
  increase in dopa compared to alpha-GPC: 3.0%
  increase in dopa compared to placebo: 23.7%
  increase in dopa compared to theobromine: 5.0%
  increase in dopa compared to theophylline: 6.7%
[2]; old rats (16-month-old)
  escape latency: 39.00 ± 1.90 s
[2]; old rats
  decrease of escape latency compared to alpha-GPC: 2.1%
  decrease of escape latency compared to control: 33.7%
  decrease of escape latency compared to theobromine: 7.9%
  decrease of escape latency compared to theophylline: 11.0%
[2]; young rats (8-week-old)
  escape latency: 32.50 ± 1.38 s
[2]; young rats
  decrease of escape latency compared to alpha-GPC: 6.7%
  decrease of escape latency compared to control: 40%
  decrease of escape latency compared to theobromine: 13.7%
  decrease of escape latency compared to theophylline: 14.5%
[3]; old rats
  dopamine (dopa) concentration: 516.85 ± 4.43 ng/L
  increase in dopa compared to L-Theanine: 9.3%
  increase in dopa compared to placebo: 32.7%
[3]; young rats
  dopamine (dopa) concentration: 580.22 ± 5.33 ng/L
  increase in dopa compared to L-Theanine: 9.8%
  increase in dopa compared to placebo: 23.7%
[4]; compared to alpha-GPC alone
  increase of distance travelled compared to alpha-GPC: 4.4%
[4]; compared to control (placebo)
  increase of distance travelled compared to control: 81%
[4]; compared to theobromine
  increase of distance travelled compared to theobromine: 6.3%
[4]; compared to theophylline
  increase of distance travelled compared to theophylline: 9.9%
[4]; oral 28 days
  exercise performance, energy, and endurance (in words): significant improvements of exercise performance, energy, and endurance
[5]; old rats
  BDNF: 842.68 ± 6.26 pg/mL
  increase in BDNF compared to alpha-GPC: 1.5%
  increase in BDNF compared to placebo: 18.1%
  increase in BDNF compared to theobromine: 3.1%
  increase in BDNF compared to theophylline: 3.8%
[5]; young rats
  BDNF: 917.05 ± 5.21 pg/mL
  increase in BDNF compared to alpha-GPC: 4.0%
  increase in BDNF compared to placebo: 22.7%
  increase in BDNF compared to theobromine: 5.4%
  increase in BDNF compared to theophylline: 4.9%
[6]; compared to L-Theanine alone
  increase of distance travelled compared to L-Theanine: 4.9%
[6]; compared to control (placebo)
  increase of distance travelled compared to control: 81%
[6]; oral 28 days
  exercise performance, energy, and endurance (in words): significant improvements of exercise performance, energy, and endurance
[6]; oral once daily 28 days, HED 50 mg paraxanthine, 25 mg L-Theanine
  distance travelled during treadmill exercise: 309.50±6.77 m
[7]; old rats (16-month-old)
  escape latency: 39.00 ± 1.90 s
[7]; old rats
  decrease of escape latency compared to L-Theanine: 12.7%
  decrease of escape latency compared to control: 33.7%
[7]; young rats (8-week-old)
  escape latency: 32.50 ± 1.38 s
[7]; young rats
  decrease of escape latency compared to L-Theanine: 15.2%
  decrease of escape latency compared to control: 40%
[8]; old rats
  BDNF: 842.7 ± 6.26 pg/mL
  increase in BDNF compared to L-Theanine: 6.8%
  increase in BDNF compared to placebo: 18.1%
[8]; young rats
  BDNF: 917 ± 5.21 pg/mL
  increase in BDNF compared to L-Theanine: 5.9%
  increase in BDNF compared to placebo: 22.7%
[9]; old rats
  glutathione (GSH) level: 25.57 ± 0.80 µg/mL
  increase in GSH compared to alpha-GPC: 3.4%
  increase in GSH compared to placebo: 62.1%
  increase in GSH compared to theobromine: 4.2%
  increase in GSH compared to theophylline: 5.5%
[9]; young rats
  glutathione (GSH) level: 32.57 ± 0.84 µg/mL
  increase in GSH compared to alpha-GPC: 2.6%
  increase in GSH compared to placebo: 64.1%
  increase in GSH compared to theobromine: 3.9%
  increase in GSH compared to theophylline: 9.4%
[10]; old rats
  glutathione (GSH) level: 25.57 ± 0.80 µg/mL
  increase in GSH compared to L-Theanine: 7.1%
  increase in GSH compared to placebo: 62.1%
[10]; young rats
  glutathione (GSH) level: 32.57 ± 0.84 µg/mL
  increase in GSH compared to L-Theanine: 2.6%
  increase in GSH compared to placebo: 64.1%
[11]; old rats
  acetylcholine (Ach) concentration: 59.78±2.61 U/mL
  increase in Ach compared to alpha-GPC: 5.1%
  increase in Ach compared to placebo: 23.2%
  increase in Ach compared to theobromine: 5.5%
  increase in Ach compared to theophylline: 8.0%
[11]; young rats
  acetylcholine (Ach) concentration: 66.83±2.38 U/mL
  increase in Ach compared to alpha-GPC: 1.4%
  increase in Ach compared to placebo: 23.9%
  increase in Ach compared to theobromine: 4.0%
  increase in Ach compared to theophylline: 4.6%
[12]; old rats
  acetylcholine (Ach) concentration: 59.78±2.61 U/mL
  increase in Ach compared to L-Theanine: 7.0%
  increase in Ach compared to placebo: 23.3%
[12]; young rats
  acetylcholine (Ach) concentration: 66.83±2.38 U/mL
  increase in Ach compared to L-Theanine: 6.4%
  increase in Ach compared to placebo: 23.9%
